# From patent US12318368B2, “Physics-driven discovery of novel small therapeutic compounds for use as a BCL-2 inhibitor” (BAHCESEHIR UNIVERSITESI, priority 2020, dated 2025)
# Test system: HCT-116 cell lines
# Assay: MTT cell proliferation assay
# Format: cell-based
# Procedure: For cell culture experiments various cancer cell lines, HCT-116 colon cancer, U87-MG glial tumor, MCF7 breast cancer cell lines were used. Cells were seeded with high glucose DMEM medium (Biosera) supplemented with 10% FBS (Gibco) and 1× penicillin/streptomycin (Multicell). Twenty-four hours prior to molecule treatment, 10,000 cells were seeded into each well of 24-well cell culture plates. Molecules were used by preparing 4 mM stock solution in DMSO (Amresco). For molecule treatment, molecule stock solutions were diluted in DMEM with 10% FBS and added onto cells in each corresponding well. Final concentration of vehicle DMSO was 2% at maximum. […] We calculated the number of cells to be seeded to make sure that none of the cells reaches more than 60% confluency during the treatment period, as higher plate confluency levels would slow down cell proliferation independently from the molecule treatment.
# Values of half-maximal inhibitory concentration were (IC50) determined by MTT cell proliferation assays. […] 570 nm absorbance values were recorded and IC50 values were calculated by dose response—inhibition curves and nonlinear regression analysis on GraphPad Prism 8 software. […] Following the initial incubation day, molecules were added and after incubation with MTT at 37° C. for 4 hours, formazan was solubilized with DMSO (Sigma-Aldrich, St. Louis, USA) and absorbance was measured at 570 nm. […]
structure (smiles),measurement,setting,value
COCCN1C(=O)/C(=C/c2ccc(OCC(=O)Nc3ccc(C)cc3)cc2)S/C1=N\c1ccccc1 [compound of formula I],proliferation of the HCT-116 cells versus vehicle group (FIG. 1),"HCT-116 cells, compared with vehicle (max 2% DMSO)",reduced proliferation and apoptotic cell structures
same,IC50,"Homo sapiens, 72 h, HCT-116 colon cancer cells, MTT, single treatment, three days results, absorbance 570 nm, read-out: IC50 (half-maximal inhibitory concentration)",25 µM
